Laboratory results as given in US10704097B2, “Oxidative stress and cardiovascular disease events” (KATHOLIEKE UNIVERSITEIT LEUVEN, priority 2014, dated 2020).
Marks after values point to notes of the source that are not given here.

Assays:
[1] = tested on: DKO (LDL-R−/−×ob/ob) mice; details: mean ± SD
Procedure: Breeding and genotyping of LDL-receptor deficient, leptin-deficient ob/ob, and DKO (LDL-R^−/−×ob/ob) mice, on the C57BL/6J background, were performed as previously described (72, 73).
To convert from mg/dL to mM, we divided glucose by 18 (=molecular weight), triglycerides by 89 and total cholesterol by 39. […] To determine glucose tolerance, glucose was measured in samples obtained by tail bleeding before and 15, 30, 60, 120 and 240 minutes after intraperitoneal administration of glucose (20% glucose solution; 2 g/kg). Plasma adiponectin […] were measured with specific mouse ELISA (R&D Systems).

Cox1 = Cox1 gene expression in aorta of DKO mice (qPCR); details: 12 weeks treatment, relative RNA expression, mean ± SD
Procedure: (§1) Total RNA from monocytes, macrophages and vascular tissues was extracted with TRIzol reagent (Invitrogen) and purified on (mi)RNeasy Mini Kit columns (Qiagen). […] First-strand cDNA was generated from total RNA with the SuperScript VILO cDNA synthesis kit (Invitrogen). qPCR analysis was performed on a 7500 Fast Real-Time PCR system using Fast SYBRGreen master mix, according to the supplier protocols (Applied Biosystems). […] For each RNA and microRNA sample, the expression levels of the RNAs as described herein were compared and normalized to reference housekeeping RNAs or microRNAs. […] We compared them with non-treated DKO at 24 weeks. […] Food and water were available ad libitum. […] All mice were sacrificed by Nembutal overdose at the age of 24 weeks (72, 73).

Tfam = Tfam gene expression in aorta of DKO mice (qPCR); details: 12 weeks treatment, relative RNA expression, mean ± SD
Procedure: as §1

Cox4i1 = Cox4i1 gene expression in aorta of DKO mice (qPCR); details: 12 weeks treatment, relative RNA expression, mean ± SD
Procedure: as §1

[2] = DKO mice at 24 weeks, 12 weeks treatment in diet

| SMILES | AUC of IPGTT ([1]; DKO mice, 12 weeks treatment, intraperitoneal glucose tolerance test, glucose 2 g/kg) | Weight ([1]; DKO mice at 24 weeks, 12 weeks treatment in diet (fenofibrate 50, rosiglitazone 10 mg/kg/day)) | Insulin ([1]; DKO mice at 24 weeks, 12 weeks treatment in diet, fasting plasma) | TG (triglyceride) [1, 2] | Total C (cholesterol) [1, 2] | Glucose ([1]; DKO mice at 24 weeks, 12 weeks treatment in diet, overnight fast) | ADN (adiponectin) ([1]; DKO mice at 24 weeks, 12 weeks treatment in diet, plasma) | HOMA-IR ([1]; DKO mice, 12 weeks treatment, fasting insulin × fasting glucose / 22.5) | Cox1 gene expression in aorta (Cox1) | Tfam gene expression in aorta (Tfam) | Cox4i1 gene expression in aorta (Cox4i1) |
| --- | --- | --- | --- | --- | --- | --- | --- | --- | --- | --- | --- |
| CC(C)OC(=O)C(C)(C)Oc1ccc(C(=O)c2ccc(Cl)cc2)cc1 [Fenofibrate] | 75 ± 15 ×10^3 |  |  |  |  |  |  |  |  |  |  |
| CN(CCOc1ccc(CC2SC(=O)NC2=O)cc1)c1ccccn1 (centres unmarked) [Rosiglitazone, rosiglitazone] |  | 55 ± 3.6*^/$ g | 69 ± 42 ^ mU/L | 192 ± 96 ^ mg/dl | 700 ± 139*^/$$ mg/dl | 88 ± 18*^/$/£ mg/dl | 16 ± 2.3***^/£££ μg/ml | 16 ± 11 ^ | 1.16 ± 0.40***^/$/£££ | 1.57 ± 0.50***^/$/££ | 2.20 ± 0.64***^/$$/££ |
